{"source": "patent US20220047566A1", "about": "“LONG ACTING IN-SITU FORMING/GELLING COMPOSITIONS” (Humanwell Pharmaceutical US, priority 2020, published 2022)", "tested_on": "skin incision", "experiment": "Mini-pig skin incision model, Von Frey test", "assay_type": "in vivo", "conditions": "subcutaneous into both sides of incision", "method": "Mini-pig skin incision model was used to test the anesthetic efficacy of some formulations. Mini pig was used in this model due to the similarities of their skin to humans. Mini pigs (9-12 kg) were randomly assigned for test groups. Under isoflurane anesthesia and sterile surgical conditions, a 6 cm long incision was made through skin in the rear left flank. The test drugs were administered subcutaneously into both sides of incision. The wound was then closed by continuous suture. After surgery the mini pig received antibiotic amoxicillin injection for 3 days as wound care. The efficacy of test drugs was evaluated by Von Frey test. At desired time point, an electrical automatic Von Frey was used to apply force about 0.5 cm to the incision. If operator observed the contraction of skin/muscle, or the applied force was over 100 g, the operator stopped the test and record the read of applied force. The response baseline of all mini pigs was tested and the pain threshold was set to the middle of baseline and 100 g. If the response force was higher than pain threshold value then there was anesthesia efficacy, vice versa.", "note": "Where a name gives a salt, the structure may show the parent alone."}
{"smiles": "CCCCN1CCCC[C@H]1C(=O)Nc1c(C)cccc1C", "note": "[levobupivacaine HCl]", "values": [{"measurement": "duration of anesthesia efficacy", "value": "about 4 hours"}]}
